“Also recorded” adds a separate entry of the source. Positions of bridges follow the written chain, without caps; N, C: chain ends. Residues, ends and D or L forms follow the SMILES beside them.

The inhibition is the relative decrease from the control value, in per cent. What is called EC50 is the concentration needed to bring the measured effect to its halfway point. Higher therefore signals a need for much substance. For orientation: IC50 means the concentration that inhibits the measured activity by half.

One data set addresses T1, chick N-cadherin (Gallus gallus, UniProt P10288).
T1 construct: expressed in transfected cells; host or cells: 3T3 fibroblasts
T1 sequence (P10288 165-912): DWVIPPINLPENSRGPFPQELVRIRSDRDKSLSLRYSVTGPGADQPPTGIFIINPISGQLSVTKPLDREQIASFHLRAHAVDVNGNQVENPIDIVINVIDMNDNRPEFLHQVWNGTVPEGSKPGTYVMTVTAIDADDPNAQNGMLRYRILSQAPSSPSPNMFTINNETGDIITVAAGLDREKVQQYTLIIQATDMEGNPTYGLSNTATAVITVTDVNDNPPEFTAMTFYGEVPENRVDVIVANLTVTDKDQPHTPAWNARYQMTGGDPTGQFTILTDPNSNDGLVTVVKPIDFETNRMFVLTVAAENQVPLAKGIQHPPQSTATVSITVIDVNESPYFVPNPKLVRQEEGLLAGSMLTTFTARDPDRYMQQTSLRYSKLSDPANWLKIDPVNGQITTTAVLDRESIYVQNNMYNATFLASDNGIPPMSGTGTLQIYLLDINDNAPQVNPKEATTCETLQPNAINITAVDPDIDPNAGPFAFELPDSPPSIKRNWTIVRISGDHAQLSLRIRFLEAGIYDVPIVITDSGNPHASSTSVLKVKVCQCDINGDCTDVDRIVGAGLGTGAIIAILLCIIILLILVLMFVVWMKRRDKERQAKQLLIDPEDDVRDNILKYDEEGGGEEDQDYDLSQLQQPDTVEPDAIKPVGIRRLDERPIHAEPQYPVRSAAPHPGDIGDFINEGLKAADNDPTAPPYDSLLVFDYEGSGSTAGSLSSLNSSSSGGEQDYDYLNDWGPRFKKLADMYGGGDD
Put plainly: N-cadherin dependent neurite outgrowth of rat cerebellar neurons on N-cadherin expressing 3T3 cells (Example 14). The note with it: for inhibition at 250 µg/mL: 250 μg/mL. The class given is cell-based. The procedure: (§1) Cell culture and neurite outgrowth assays. Co-cultures of cerebellar neurons on monolayers of control 3T3 cells and monolayers of transfected 3T3 cells that express physiological levels of chick N-cadherin or human L1 were established as previously described (Williams et al., Neuron 13:583-594, 1994). In brief, 80,000 3T3 cells (control and transfected) were plated into individual chambers of an eight-chamber tissue culture slide coated with polylysine and fibronectin and cultured in DMEM/10% FCS. After 24 hours, when confluent monolayers had formed, the medium was removed and 3000 cerebellar neurons isolated from post-natal day 2-3 rats were plated into each well in SATO media (Doherty et al., Nature 343:464-466, 1990) supplemented with 2% FCS. All of the test peptides were added immediately before the neurons as a 2×stock prepared in SATO/2% FCS. The co-cultures were maintained for 16-18 hours, at which time they were fixed and immunostained for GAP-43 which is present only in the neurons and delineates the neuritic processes. The mean length of the longest neurite per cell was measured for 150-200 neurons sampled in replicate cultures as previously described (Williams et al., Neuron 13:583-594, 1994). […] Dose-response curves were evaluated and the EC50 values determined.
Effects of cyclic HAV peptides on N-cadherin function. The ability of N-Ac-CHAVC-NH2 (SEQ ID NO:10; compound 1) to inhibit neurite outgrowth was initially tested. This cyclic peptide has the cadherin CAR sequence (HAV) and no flanking amino acid residues. Neurons were cultured on confluent monolayers of control (untransfected) and N-cadherin expressing 3T3 cells for 16-18 hours. The cells were then fixed and the length of the longest neurite on 150-200 neurons was determined by standard assay, as described above. FIG. 24 gives the mean neurite length in a representative experiment where cerebellar neurons have been cultured over control and N-cadherin expressing cells. In the absence of peptide, the mean length of the longest neurite per cell was approximately double on the N-cadherin expressing cells, as compared to 3T3 cells. This response requires N-cadherin function in both the neuron and transfected fibroblast.

For the next data set, the target named is L1 (Homo sapiens, UniProt P32004). Put plainly: L1 response: neurite outgrowth of rat cerebellar neurons on L1 expressing 3T3 cells (Example 14). The format is cell-based. As to conditions: 100 μg/mL, concentrations that substantially inhibited the N-cadherin response. On the set-up: expressed in transfected cells; host or cells: 3T3 cells (stably transfected). The procedure: FIG. 26 is a bar graph illustrating the effects of the cyclic peptides N-Ac-CHAVDC-NH2 (SEQ ID NO:11), N-Ac-CHAVDIC-NH2 (SEQ ID NO:62) and N-Ac-[…]-NH2 (SEQ ID NO:63) on L1 function. Cerebellar neurons were cultured on monolayers of control 3T3 cells and L1 expressing 3T3 cells for 16-18 hours in control media (unshaded) or control media supplemented with peptides N-Ac-CHAVDC-NH2 (SEQ ID NO:11; diagonal rising right), N-Ac-CHAVDIC-NH2 (SEQ ID NO:62); diagonal cross hatch) or N-Ac-[…]-NH2 (SEQ ID NO:63; diagonal rising left) at a concentration of 100 μg/mL. The cultures were then fixed and neurite outgrowth determined by measuring the length of the longest neurite from a total of 150-200 neurons sampled in replicate cultures for each experimental condition. […] The results are pooled from three independent experiments, and the bars show the s.e.m.
L1, sequence (P32004 20-1257): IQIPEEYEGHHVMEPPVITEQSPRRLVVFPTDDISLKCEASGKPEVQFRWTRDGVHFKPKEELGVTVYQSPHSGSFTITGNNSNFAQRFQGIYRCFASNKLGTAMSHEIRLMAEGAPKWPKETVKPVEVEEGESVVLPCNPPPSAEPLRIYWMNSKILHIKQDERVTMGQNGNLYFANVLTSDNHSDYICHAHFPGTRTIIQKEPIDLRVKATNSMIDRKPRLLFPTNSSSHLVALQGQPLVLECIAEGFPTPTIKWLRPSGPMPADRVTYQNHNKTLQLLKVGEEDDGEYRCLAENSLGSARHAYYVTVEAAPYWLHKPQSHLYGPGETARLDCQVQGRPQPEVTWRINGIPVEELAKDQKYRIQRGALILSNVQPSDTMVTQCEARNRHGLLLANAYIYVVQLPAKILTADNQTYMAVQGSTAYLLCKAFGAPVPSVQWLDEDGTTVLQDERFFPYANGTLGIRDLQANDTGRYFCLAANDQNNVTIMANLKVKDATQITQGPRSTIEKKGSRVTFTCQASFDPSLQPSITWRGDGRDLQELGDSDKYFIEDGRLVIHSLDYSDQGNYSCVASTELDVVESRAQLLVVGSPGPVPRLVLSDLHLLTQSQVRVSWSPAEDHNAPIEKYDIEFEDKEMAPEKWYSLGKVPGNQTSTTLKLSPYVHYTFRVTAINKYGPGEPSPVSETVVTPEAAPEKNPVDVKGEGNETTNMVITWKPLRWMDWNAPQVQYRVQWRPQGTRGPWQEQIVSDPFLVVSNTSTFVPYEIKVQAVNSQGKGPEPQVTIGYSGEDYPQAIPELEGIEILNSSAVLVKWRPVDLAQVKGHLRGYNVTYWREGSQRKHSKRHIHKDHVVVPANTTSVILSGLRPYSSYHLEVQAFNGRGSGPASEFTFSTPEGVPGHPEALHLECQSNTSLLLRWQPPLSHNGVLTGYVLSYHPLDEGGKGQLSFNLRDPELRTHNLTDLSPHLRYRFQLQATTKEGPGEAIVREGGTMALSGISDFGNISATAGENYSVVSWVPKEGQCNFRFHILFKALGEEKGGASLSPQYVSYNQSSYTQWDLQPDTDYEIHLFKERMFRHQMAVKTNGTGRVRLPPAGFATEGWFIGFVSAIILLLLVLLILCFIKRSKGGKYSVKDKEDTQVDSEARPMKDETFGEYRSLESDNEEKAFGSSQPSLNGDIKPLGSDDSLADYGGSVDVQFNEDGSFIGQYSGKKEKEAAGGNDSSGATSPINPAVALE
as §1, with “The co-cultures were maintained for 16-18 hours, at which time they were fixed and immunostained for GAP-43 which is present only in the neurons and delineates the neuritic processes.” left out, “determined. […]” for “determined.”

Data set [1] concerns bovine pulmonary artery endothelial cells. Put plainly: Disruption of bovine endothelial cell adhesion. The class given is cell-based. As to conditions: 500 μg/ml, 30 minutes. The method, then: For use within one such assay, bovine pulmonary artery endothelial cells may be harvested by sterile ablation and digestion in 0.1% collagenase (type II; Worthington Enzymes, Freehold, N.J.). Cells may be maintained in Dulbecco's minimum essential medium supplemented with 10% fetal calf serum and 1% antibiotic-antimycotic at 37° C. in 7% CO2 in air. Cultures may be passaged weekly in trypsin-EDTA and seeded onto tissue culture plastic at 20,000 cells/cm^2. Endothelial cultures may be used at 1 week in culture, which is approximately 3 days after culture confluency is established. The cells may be seeded onto coverslips and treated (e.g., for 30 minutes) with modulating agent or a control compound at, for example, 500 μg/ml and then fixed with 1% paraformaldehyde. As noted above, disruption of cell adhesion may be determined visually within 24 hours, by observing retraction of the cells from one another. This assay evaluates the effect of a modulating agent on N-cadherin mediated cell adhesion.
Bovine pulmonary artery endothelial cells were harvested by sterile ablation and digestion in 0.1% collagenase (type II; Worthington Enzymes, Freehold, N.J.). Cells were maintained in Dulbecco's […] essential medium (Clonetics, San Diego, Calif.) supplemented with 10% fetal calf serum (Atlantic Biologicals, Nor cross, Ga.) and 1% antibiotic-antimycotic at 37° C. in 7% CO2 in air. Cultures were passaged weekly in trypsin-EDTA (Gibco, Grand Island, N.Y.) and seeded onto tissue culture plastic at 20,000 cells/cm^2 for all experiments. Endothelial cultures were used at 1 week in culture, which is approximately 3 days after culture confluency was established. The cells used in all protocols were between 4th passage and 10th passage. The cells were seeded onto coverslips and treated 30 minutes with N-Ac-CHAVC-NH2 (SEQ ID NO:10) or N-Ac-CHGVC-NH2 (SEQ ID NO:20) at 500 μg/ml and then fixed with 1% paraformaldehyde.

The subject of data set [2] is angiogenesis in chick embryonic chorioallantoic membranes. Put plainly: Chick chorioallantoic membrane angiogenesis assay. The format is in vivo. The note with it: for percent inhibition of angiogenesis: 24 hours. The procedure: The chick chorioallantoic membrane assay was used to assess the effects of cyclic peptides on angiogenesis (Iruela-Arispe et al., Molecular Biology of the Cell 6:327-343, 1995). Cyclic peptides were embedded in a mesh composed of vitrogen at concentrations of 3, 17, and 33 μg/mesh. The meshes were then applied to 12-day-old chick embryonic chorioallantoic membranes. After 24 hours, the effects of the peptides on angiogenesis were assessed by computer assisted morphometric analysis.
For each concentration of cyclic peptide, the percent inhibition of angiogenesis (relative to the level of angiogenesis in the absence of cyclic peptide) is provided. Assays were performed in the presence (+) or absence (−) of […] VEGF. For example, the cyclic peptide N-Ac-CHAVC-NH2 (SEQ ID NO:10) inhibited angiogenesis by 46%, 51%, and 51% at concentrations of 3, 17, and 33 μg/mesh, respectively.

The nature of data set [3]: in vitro. The note with it: human. The format is cell-based. The method, then:
(§2) N-Ac-CHAVC-NH2 (SEQ ID NO:10) and the control peptide N-Ac-CHGVC-NH2 (SEQ ID NO:20) were evaluated for possible cytotoxic effects on human microvascular endothelial (HMVEC; Clonetics), human umbilical vein endothelial (HUVEC; ATCC #CRL-1730), IAFp2 (human fibroblast cell line; Institute Armand-Frapier, Montreal, Quebec), WI-38 (human fibroblast cell line; ATCC #CCL-75), MDA-MB231 (human breast cancer cell line; ATCC #HTB-26), and PC-3 (human prostate cancer cell line; ATCC #CRL-1435) cells utilizing the MTT assay (Plumb et al., Cancer Res. 49:4435-4440, 1989). Neither of the peptides was cytotoxic at concentrations up to and including 100 μM. Similarly, neither of the peptides was capable of inhibiting the proliferation of the above cell lines at concentrations up to 100 μM, as judged by ^3H-thymidine incorporation assays.

Data set [4] can be described thus: in vitro. The format is cell-based. As to conditions: human. The procedure:
as §2
This is another data set of the same source.

Data set [5] can be described thus: in vitro. The class given is cell-based. As to conditions: human. The method, then:
as §2
The source holds these as a separate data set.

Data set [6] is described as follows: in vitro. The class given is cell-based. The note with it: human. The method, then:
as §2
This is another data set of the same source.

Regarding `CC[C@H](C)[C@@H]1NC(=O)[C@H](CC(=O)O)NC(=O)[C@H](C(C)C)NC(=O)[C@H](C)NC(=O)[C@H](Cc2c[nH]cn2)NC(=O)[C@@H](NC(C)=O)CSSC[C@@H](C(N)=O)NC(=O)[C@H](CC(N)=O)NC1=O` (Ac-CHAVDINC-NH2; disulfide 1-8), the inhibition at 125 µg/mL on chick N-cadherin (NIH3T3, 125 μg/mL, 16-18 hours) came to 62 ± 3.4%. On chick N-cadherin (Tables 8 and 9, 250 or 125 μg/mL), the “inhibitory activity on N-cadherin dependent neurite outgrowth, in words” value is on record as “only a slight loss in activity; also recorded: potent inhibitors”. The same compound returned an EC50 at chick N-cadherin (from dose-response curve) of 70 µM. Besides, the “effect on L1 response (neurite outgrowth over L1 expressing 3T3 cells)” value on L1 is reported as “did not interfere with the ability of neurons to extend neurites over 3T3 cells expressing L1; also recorded: not inhibited”.

As to `CC(=O)N[C@H]1CSSC[C@@H](C(N)=O)NC(=O)[C@H](CO)NC(=O)[C@H](CO)NC(=O)[C@H](C(C)C)NC(=O)[C@H](C)NC(=O)[C@H](Cc2c[nH]cn2)NC(=O)[C@H](CO)NC1=O` (Ac-CSHAVSSC-NH2; disulfide 1-8), the “effect on endothelial cell monolayer / morphology” value in data set [1] was “disrupted the endothelial cell monolayer; also recorded: retracted from one another and round up”. Further, the “percent inhibition of angiogenesis” value was 1% in data set [2] (3 μg/mesh, absence (−) of 0.01 mM VEGF); −3% in data set [2] (3 μg/mesh, presence (+) of 0.01 mM VEGF); −3% in data set [2] (17 μg/mesh, absence (−) of 0.01 mM VEGF); 12% in data set [2] (17 μg/mesh, presence (+) of 0.01 mM VEGF); 17% in data set [2] (33 μg/mesh, absence (−) of 0.01 mM VEGF); 7% in data set [2] (33 μg/mesh, presence (+) of 0.01 mM VEGF). In addition, in data set [2] (3, 17, and 33 μg/mesh), the “inhibition of angiogenesis, in words” value was “relatively inactive”. Further, the IC50 in the data set “in vitro [3]”, in the data set “in vitro [4]”, in “in vitro [5]” and in the data set “in vitro [6]” was greater than 100 µM throughout. The inhibition at 250 µg/mL against chick N-cadherin (NIH3T3, 16-18 hours) was -12.6 ± 6.4%. Besides, the “reduction in inhibitory activity on flanking HAV with E-cadherin amino acids” value at chick N-cadherin (Table 8, 250 μg/mL) is listed as “complete”.

On to `CC(=O)N[C@H]1CSSC[C@@H](C(N)=O)NC(=O)[C@H](CC(=O)O)NC(=O)[C@H](C(C)C)NC(=O)CNC(=O)[C@H](Cc2c[nH]cn2)NC(=O)[C@H](C)NC1=O` [N-Ac-CAHGVDC-NH2, reference compound] (Ac-CAHGVDC-NH2; disulfide 1-7), for which the “effect on endothelial cell monolayer / morphology” value in data set [1] is “inactive”. Further, the IC50 in the data set “in vitro [3]”, in the data set “in vitro [4]”, in “in vitro [5]” and in the data set “in vitro [6]” was greater than 100 µM each time. For the same compound, the inhibition at 250 µg/mL at chick N-cadherin (NIH3T3, 16-18 hours) was 4 ± 6.9%.

In the case of `CC(=O)N[C@H]1CSSC[C@@H](C(N)=O)NC(=O)[C@H](CO)NC(=O)[C@H](CO)NC(=O)[C@H](C(C)C)NC(=O)CNC(=O)[C@H](Cc2c[nH]cn2)NC(=O)[C@H](CO)NC1=O` [reference compound] (Ac-CSHGVSSC-NH2; disulfide 1-8), the “effect on endothelial cell monolayer / morphology” value in data set [1] was “inactive”. Moreover, the IC50 in “in vitro [3]”, in the data set “in vitro [4]”, in the data set “in vitro [5]” and in the data set “in vitro [6]” was greater than 100 µM in each case. Further, the inhibition at 250 µg/mL on chick N-cadherin (NIH3T3, 16-18 hours) is -5.6 ± 5.9%.
